# Measurements from ChEMBL document CHEMBL5233290, “Anulamycins A-F, Cinnamoyl-Containing Peptides from a Lake Sediment Derived Streptomyces” (J Nat Prod, 2023).
# Key:
# K562 = assay: Cytotoxicity against human K562 cells assessed as reduction in cell viability incubated for 72 hrs by CCK8 assay; format: functional, cell-based; settings: K562, 72 h
# [1] = system: Staphylococcus epidermidis; assay: Antibacterial activity against Staphylococcus epidermidis ATCC12228 assessed as inhibition of bacterial growth incubated for 18 hrs by 2-fold serial dilution method; settings: ATCC12228, 18 h
# A549 = assay: Cytotoxicity against human A549 cells assessed as reduction in cell viability incubated for 72 hrs by CCK8 assay; format: functional, cell-based; settings: A549, 72 h
# Escherichia coli = assay: Antibacterial activity against Escherichia coli ATCC35218 assessed as inhibition of bacterial growth incubated for 18 hrs by 2-fold serial dilution method; format: functional
# Bacillus subtilis = assay: Antibacterial activity against Bacillus subtilis E168 assessed as inhibition of bacterial growth incubated for 18 hrs by 2-fold serial dilution method; format: functional
# Staphylococcus aureus = assay: Antibacterial activity against Staphylococcus aureus ATCC 43300 assessed as inhibition of bacterial growth incubated for 18 hrs by 2-fold serial dilution method; format: functional
SMILES,IC50 (K562) [µM],MIC [1] [µM],IC50 (A549) [µM],MIC (Escherichia coli) [µM],MIC (Bacillus subtilis) [µM],MIC (Staphylococcus aureus) [µM]
C/C=C\c1ccccc1/C=C/C(=O)N[C@@H]1C(=O)N[C@@H](C)C(=O)N[C@@H]([C@H](C)C(=O)O)C(=O)NCC(=O)N[C@@H]([C@@H](O)c2ccccc2)C(=O)N2CCC[C@H]2C(=O)N[C@@H]([C@@H](O)c2ccc(OC)cc2)C(=O)N[C@H](Cc2c[nH]c3ccccc23)C(=O)N[C@@H](O)C(=O)N[C@H](CC(C)C)C(=O)N[C@H]([C@@H](O)C(C)C)C(=O)O[C@@H]1C,> 10,32,> 10,> 128,16,16
C/C=C\c1ccccc1/C=C/C(=O)N[C@@H]1C(=O)N[C@@H](C)C(=O)N[C@@H](CC(=O)O)C(=O)NCC(=O)N[C@@H]([C@@H](O)c2ccccc2)C(=O)N2CCC[C@H]2C(=O)N[C@@H]([C@@H](O)c2ccc(OC)cc2)C(=O)N[C@H](Cc2c[nH]c3ccccc23)C(=O)N[C@@H](O)C(=O)N[C@H](CC(C)C)C(=O)N[C@H]([C@@H](O)C(C)C)C(=O)O[C@@H]1C,> 10,64,> 10,> 128,48,32
C/C=C\c1ccccc1/C=C/C(=O)N[C@H](C(=O)N[C@@H](C)C(=O)N[C@H](C(N)=O)[C@H](C)C(=O)N1CC(=O)N[C@@H]([C@@H](O)c2ccccc2)C(=O)N2CCC[C@H]2C(=O)N[C@@H]([C@@H](O)c2ccc(OC)cc2)C(=O)N[C@H](Cc2c[nH]c3ccccc23)C1=O)[C@@H](C)O,> 10,64,> 10,> 128,32,32
C/C=C\c1ccccc1/C=C/C(=O)N/C(=C\C)C(=O)N[C@@H](C)C(=O)N[C@H](C(N)=O)[C@H](C)C(=O)N1CC(=O)N[C@@H]([C@@H](O)c2ccccc2)C(=O)N2CCC[C@H]2C(=O)N[C@@H]([C@@H](O)c2ccc(OC)cc2)C(=O)N[C@H](Cc2c[nH]c3ccccc23)C1=O,> 10,16,> 10,> 128,16,16
C/C=C\c1ccccc1/C=C/C(=O)N[C@H](C(=O)N[C@@H](C)C(=O)N[C@@H](CC(=O)N1CC(=O)N[C@@H]([C@@H](O)c2ccccc2)C(=O)N2CCC[C@H]2C(=O)N[C@@H]([C@@H](O)c2ccc(OC)cc2)C(=O)N[C@H](Cc2c[nH]c3ccccc23)C1=O)C(N)=O)[C@@H](C)O,> 10,128,> 10,> 128,64,64
C/C=C\c1ccccc1/C=C\C(=O)N[C@H](C(=O)N[C@@H](C)C(=O)N[C@H](C(N)=O)[C@H](C)C(=O)N1CC(=O)N[C@@H]([C@@H](O)c2ccccc2)C(=O)N2CCC[C@H]2C(=O)N[C@@H]([C@@H](O)c2ccc(OC)cc2)C(=O)N[C@H](Cc2c[nH]c3ccccc23)C1=O)[C@@H](C)O,> 10,64,> 10,> 128,64,32
C/C=C\c1ccccc1/C=C\C(=O)N[C@H](C(=O)N[C@@H](C)C(=O)N[C@@H](CC(=O)O)C(=O)NCC(=O)N[C@H](C(=O)N1CCC[C@H]1C(=O)N[C@H](C(=O)N[C@H](Cc1c[nH]c2ccccc12)C(N)=O)[C@@H](O)c1ccc(OC)cc1)[C@@H](O)c1ccccc1)[C@@H](C)O,> 10,> 128,> 10,> 128,> 128,64
C/C=C\c1ccccc1/C=C/C(=O)N[C@H](C(=O)N[C@@H](C)C(=O)N[C@@H](CC(=O)O)C(=O)NCC(=O)N[C@H](C(=O)N1CCC[C@H]1C(=O)N[C@H](C(=O)N[C@H](Cc1c[nH]c2ccccc12)C(N)=O)[C@@H](O)c1ccc(OC)cc1)[C@@H](O)c1ccccc1)[C@@H](C)O,> 10,> 128,> 10,> 128,> 128,64
NC[C@H]1O[C@H](O[C@H]2[C@H](O)[C@@H](O[C@H]3O[C@H](CO)[C@@H](O)[C@H](N)[C@H]3O)[C@H](N)C[C@@H]2N)[C@H](O)[C@@H](O)[C@@H]1O [KANAMYCIN],,< 2,,< 2,< 2,< 2
